Results on nine molecules are retold here after paper PMC7688211, “Multiple Transporters and Glycoside Hydrolases Are Involved in Arabinoxylan-Derived Oligosaccharide Utilization in Bifidobacterium pseudocatenulatum” (Applied and Environmental Microbiology, 2020).

pKd: −log10 of the molar value. Read-outs that look alike come from different tables or passages of the source.

Holding throughout (test): SPR (Biacore T200), SBP immobilised on CM5
Background: In SPR one partner is held on a chip, and binding of the other changes the refractive index at the surface.

One assay deals with T1, BpAXBP3 (Bifidobacterium pseudocatenulatum, UniProt A0ABY6YA63).
T1 construct: gene msmE_1; predicted signal peptide removed, N-terminal His tag (pCold I), E. coli BL21; primers encode native start KDDKTITFW after IEGRH linker and end AASKG; immobilised on CM5 chip
T1 sequence (A0ABY6YA63 29-424): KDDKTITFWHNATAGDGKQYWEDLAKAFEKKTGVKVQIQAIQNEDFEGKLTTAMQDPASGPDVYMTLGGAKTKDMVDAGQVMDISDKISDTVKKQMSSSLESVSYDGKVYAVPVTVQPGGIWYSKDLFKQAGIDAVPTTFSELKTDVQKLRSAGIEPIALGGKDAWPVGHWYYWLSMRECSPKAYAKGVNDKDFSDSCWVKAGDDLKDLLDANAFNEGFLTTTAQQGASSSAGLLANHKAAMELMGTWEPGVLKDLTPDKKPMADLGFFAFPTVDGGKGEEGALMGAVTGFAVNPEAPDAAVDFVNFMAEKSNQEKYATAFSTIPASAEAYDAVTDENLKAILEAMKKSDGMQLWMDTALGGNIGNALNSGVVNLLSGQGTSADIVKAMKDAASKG
The assay is classed as binding. Particulars: 25°C, 20 mM phosphate/citrate pH 6.5, 150 mM NaCl, 0.005% Tween 20.

The target in the next assay is T2, BpAXBP2.
T2 construct: gene BBPC_RS02280; predicted signal peptide removed, N-terminal His tag (pCold I), E. coli BL21; primers encode native start ASKDEN after IEGRH linker and end ALPTE; immobilised on CM5 chip
Set-up: species or system Bifidobacterium pseudocatenulatum. The settings on record: 25°C, 20 mM phosphate/citrate pH 6.5, 150 mM NaCl, 0.005% Tween 20.

The target of another assay is T3, BpAXBP1 (Bifidobacterium pseudocatenulatum, UniProt A0A087BW54).
T3 construct: predicted signal peptide removed, N-terminal His tag (pCold I), E. coli BL21; primers encode native start ACGGGTN after IEGRH linker and end KNLKVKK; immobilised on CM5 chip
T3 sequence (A0A087BW54 25-563): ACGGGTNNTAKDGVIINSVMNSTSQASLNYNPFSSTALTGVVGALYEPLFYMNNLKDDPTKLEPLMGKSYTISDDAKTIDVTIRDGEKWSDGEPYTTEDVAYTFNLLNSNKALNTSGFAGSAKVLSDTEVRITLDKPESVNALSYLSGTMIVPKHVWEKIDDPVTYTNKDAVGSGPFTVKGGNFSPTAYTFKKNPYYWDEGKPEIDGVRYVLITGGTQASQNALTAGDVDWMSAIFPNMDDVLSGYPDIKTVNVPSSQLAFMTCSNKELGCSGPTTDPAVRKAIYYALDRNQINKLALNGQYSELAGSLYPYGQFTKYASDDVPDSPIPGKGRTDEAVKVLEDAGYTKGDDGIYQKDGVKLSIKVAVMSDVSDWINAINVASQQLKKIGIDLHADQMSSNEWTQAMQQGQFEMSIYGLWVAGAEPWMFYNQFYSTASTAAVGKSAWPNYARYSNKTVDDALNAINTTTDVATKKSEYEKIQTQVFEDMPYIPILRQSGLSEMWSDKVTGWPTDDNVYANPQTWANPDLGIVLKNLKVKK
The assay is classed as binding. Particulars: 25°C, 20 mM phosphate/citrate pH 6.5, 150 mM NaCl, 0.005% Tween 20; for pKd: read-out: Kd.

Take `OC[C@@H]1O[C@@H](O[C@@H]2[C@@H](O)[C@H](O[C@@H]3COC(O)[C@H](O)[C@H]3O)OC[C@H]2O)[C@H](O)[C@H]1O` (stereo partly drawn) [AXOS1, 3^2-α-L-arabinofuranosyl-xylobiose]: the results for the pKd at BpAXBP3 and on BpAXBP2 were over 4.00 and 6.18, respectively.
On to `OC[C@@H]1O[C@@H](O[C@@H]2[C@@H](O[C@@H]3O[C@@H](CO)[C@H](O)[C@H]3O)[C@H](O[C@@H]3CO[C@@H](O[C@@H]4COC(O)[C@H](O)[C@H]4O)[C@H](O)[C@H]3O)OC[C@H]2O)[C@H](O)[C@H]1O` (stereo partly drawn) [AXOS2, 2^3,3^3-di-α-L-arabinofuranosyl-xylotriose], for which the pKd at BpAXBP2 was 6.16.
Consider `OC[C@@H]1O[C@@H](O[C@H]2[C@H](O[C@@H]3CO[C@@H](O[C@@H]4COC(O)[C@H](O)[C@H]4O)[C@H](O)[C@H]3O)OC[C@@H](O)[C@@H]2O)[C@H](O)[C@H]1O` (stereo partly drawn) [AXOS3, 2^3-α-L-arabinofuranosyl-xylotriose], for which the pKd is over 4.00 on BpAXBP3 and 4.72 at BpAXBP2.
Regarding `OC[C@@H]1O[C@@H](O[C@@H]2[C@@H](O)[C@H](O[C@@H]3CO[C@@H](O[C@@H]4COC(O)[C@H](O)[C@H]4O)[C@H](O)[C@H]3O)OC[C@H]2O[C@@H]2OC[C@@H](O)[C@H](O)[C@H]2O)[C@H](O)[C@H]1O` (stereo partly drawn) [AXOS4, 3^3-α-L-arabinofuranosyl-xylotetraose], the pKd is 5.12 on BpAXBP1, over 4.00 on BpAXBP3 and 3.99 at BpAXBP2.
In the case of `OC1OC[C@@H](O[C@@H]2OC[C@@H](O)[C@H](O)[C@H]2O)[C@H](O)[C@H]1O` (stereo partly drawn) [XOS2, xylobiose], the Kd result on BpAXBP1 is “BpAXBP1 exhibited a high affinity for XOS and AXOS4”. This molecule also had a negative logarithm of the Kd (pKd) on BpAXBP3 of over 4.00.
`OC1OC[C@@H](O[C@@H]2OC[C@@H](O[C@@H]3OC[C@@H](O)[C@H](O)[C@H]3O)[C@H](O)[C@H]2O)[C@H](O)[C@H]1O` (stereo partly drawn) [XOS3, xylotriose]: the pKd on BpAXBP1 is 4.73; on BpAXBP3, over 4.00.
For `OC1OC[C@@H](O[C@@H]2OC[C@@H](O[C@@H]3OC[C@@H](O[C@@H]4OC[C@@H](O)[C@H](O)[C@H]4O)[C@H](O)[C@H]3O)[C@H](O)[C@H]2O)[C@H](O)[C@H]1O` (stereo partly drawn) [XOS4, xylotetraose] the same measures were 6.20 and over 4.00.
For `OC1OC[C@@H](O[C@@H]2OC[C@@H](O[C@@H]3OC[C@@H](O[C@@H]4OC[C@@H](O[C@@H]5OC[C@@H](O)[C@H](O)[C@H]5O)[C@H](O)[C@H]4O)[C@H](O)[C@H]3O)[C@H](O)[C@H]2O)[C@H](O)[C@H]1O` (stereo partly drawn) [XOS5, xylopentaose] the same measures were 5.82 and over 4.00.
The corresponding values for `OC1OC[C@@H](O[C@@H]2OC[C@@H](O[C@@H]3OC[C@@H](O[C@@H]4OC[C@@H](O[C@@H]5OC[C@@H](O[C@@H]6OC[C@@H](O)[C@H](O)[C@H]6O)[C@H](O)[C@H]5O)[C@H](O)[C@H]4O)[C@H](O)[C@H]3O)[C@H](O)[C@H]2O)[C@H](O)[C@H]1O` (stereo partly drawn) [XOS6, xylohexaose] are 5.09 and over 4.00.

By pKd is commonly meant the Kd on a negative log10 scale, so that one unit is a factor of ten.
